Assay results: patent US20260256797A1, “NOVEL INDENONE DERIVATIVES AND USES THEREOF” (AMYLOID SOLUTION INC., priority 2022, published 2026)

Experiments:
[1] = target: Tau-RD3 (Tau repeat domain 3) (Homo sapiens, UniProt P10636); experiment: Tau disaggregation test by thioflavin-T assay; assay type: biochemical; settings: 35 μM Tau-RD3 aggregated 24 hours, then compound 0-500 μM for 48 hours at 37° C.
Description: (§1) Each compound was dissolved in DMSO to a concentration of 10 mM. Subsequently, the compound was diluted with 6% DMSO (in DW) and used.
(§2) Specifically, amyloid-beta and tau solutions were prepared by dissolving Aβ1-42 or Tau-RD3 (Tau repeat domain 3) monomer in DMSO to a concentration of 10 mM. Thereafter, each solution was diluted with DW to a concentration of 100 μM and stored on ice. Meanwhile, thioflavin-T was dissolved in 50 mM glycine buffer (pH 8.5) to a concentration of 5 mM. Thereafter, the resulting solution was diluted with 50 mM glycine buffer (pH 8.5) to a concentration of 5 μM and stored in a dark room while light was blocked.
(§3) Each of the amyloid-beta and tau solutions prepared according to Experimental Example 1.1 was added to a 1.5 mL microcentrifuge tube to a concentration of 50 μM or 35 µM, and then a reaction was allowed to occur therebetween at 37° C. for 24 hours. Each of the 1.5 mL microcentrifuge tubes in which amyloid-beta aggregation and tau aggregation had been completed was treated with each compound at a concentrated of 500 μM to 0 μM through serial dilution, and then a further reaction was allowed to occur therebetween at 37° C. for 48 hours. 25 μL of the reaction solution in which the reaction had been completed was added to each well of a 96-well plate for fluorescence analysis, and 75 μL of the previously prepared thioflavin-T solution was added to each well. After a reaction was allowed to occur at room temperature in the dark for 5 minutes, fluorescence values were measured at excitation 450 nm and emission 485 nm by using a multi-mode microplate reader.
(§4) The fluorescence value of a group (control) treated with amyloid-beta or tau alone, followed by aggregation for 72 hours was converted into a percentage value and expressed as 100, and amyloid-beta and tau aggregates, in which aggregation had been completed upon reaction for 24 hours, were treated with each compound at each concentration and a further reaction was allowed to occur therebetween for 48 hours, and then fluorescence values thereof were measured and converted into relative values. The results thereof are illustrated in FIGS. 1 to 6 and 7 to 12. In addition, EC50 values of the compounds of the present disclosure for amyloid-beta and tau, respectively are summarized in Table 1.

Aβ1-42 = target: T1, Aβ1-42 (Homo sapiens, UniProt P05067); experiment: Amyloid-beta (Aβ) disaggregation test by thioflavin-T assay; assay type: biochemical; settings: 50 μM Aβ1-42 aggregated 24 hours, then compound 0-500 μM for 48 hours at 37° C.
T1 construct: dissolving Aβ1-42 or Tau-RD3 (Tau repeat domain 3) monomer in DMSO
T1 sequence (P05067 672-713 limits assumed): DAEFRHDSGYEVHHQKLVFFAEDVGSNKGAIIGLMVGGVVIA
Description: as §1, §2, §3, §4

Chain of Tau-RD3 (Tau repeat domain 3) (P10636 623-653 limits assumed): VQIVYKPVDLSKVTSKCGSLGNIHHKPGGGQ

| Structure (SMILES) | EC50 [1] | EC50 (Aβ1-42) |
| --- | --- | --- |
| Cc1ncsc1C1=C(c2ccccc2)C(=O)c2cc(OCCCc3ccccc3)ccc21 [Compound 10, 3-(4-methylthiazol-5-yl)-2-phenyl-6-(3-phenylpropoxy)-1H-inden-1-one] | 350 µM | 5.6 µM |
| Cc1ncsc1C1=C(c2cccs2)C(=O)c2cc(OCCCc3ccccc3)ccc21 [Compound 12, 3-(4-methylthiazol-5-yl)-6-(3-phenylpropoxy)-2-(thiophen-2-yl)-1H-inden-1-one] | 154 µM | 4.3 µM |
| Cc1ncsc1C1=C(c2cccnc2)C(=O)c2cc(OCCOc3ccccc3)ccc21 [Compound 17, 3-(4-methylthiazol-5-yl)-6-(2-phenoxyethoxy)-2-(pyridin-3-yl)-1H-inden-1-one] | 19.2 µM | 5.7 µM |
| Cc1ncsc1C1=C(c2cccnc2)C(=O)c2cc(OCCCCc3ccccc3)ccc21 [Compound 15, 3-(4-methylthiazol-5-yl)-6-(4-phenylbutoxy)-2-(pyridin-3-yl)-1H-inden-1-one] | 59.8 µM | 2.5 µM |
| COc1ccc(C2=C(c3ncsc3C)c3ccc(OCCc4ccccc4)cc3C2=O)cc1 [Compound 18, 2-(4-methoxyphenyl)-3-(5-methylthiazol-4-yl)-6-phenethoxy-1H-inden-1-one] | 242 µM | 26.1 µM |
| Cc1scnc1C1=C(c2cccs2)C(=O)c2cc(OCCCCc3ccccc3)ccc21 [Compound 29, 3-(5-methylthiazol-4-yl)-6-(4-phenylbutoxy)-2-(thiophen-2-yl)-1H-inden-1-one] | > 500 µM | 7.5 µM |
| Cc1ncsc1C1=C(c2cccnc2)C(=O)c2cc(OCCc3ccccc3)ccc21 [Compound 14, 3-(4-methylthiazol-5-yl)-6-phenethoxy-2-(pyridin-3-yl)-1H-inden-1-one] | > 500 µM | 177 µM |
| Cc1scnc1C1=C(c2cccnc2)C(=O)c2cc(OCCCN3CCOCC3)ccc21 [Compound 4, 3-(5-methylthiazol-4-yl)-6-(3-morpholinopropoxy)-2-(pyridin-3-yl)-1H-inden-1-one] | 156 µM | 75 µM |
| Cc1ncsc1C1=C(Br)C(=O)c2cc(OCCCc3ccccc3)ccc21 [Compound 3, 2-bromo-3-(4-methylthiazol-5-yl)-6-(3-phenylpropoxy)-1H-inden-1-one] | 8.5 µM | 3.8 µM |

Now from value to compound:

| EC50 [1] | EC50 (Aβ1-42) | Structure (SMILES) |
| --- | --- | --- |
| 145 µM | 10.4 µM | COc1ccc(OCCOc2ccc3c(c2)C(=O)C(c2ccc(C(F)(F)F)cc2)=C3c2ncsc2C)cc1OC [Compound 33, 6-(2-(3,4-dimethoxyphenoxy)ethoxy)-3-(5-methylthiazol-4-yl)-2-(4-(trifluoromethyl)phenyl)-1H-inden-1-one] |
| 19.9 µM | 2.3 µM | COc1ccc(COCOc2ccc3c(c2)C(=O)C(c2cccnc2)=C3c2ccoc2)cc1 [Compound 50, 3-(furan-3-yl)-6-(((4-methoxybenzyl)oxy)methoxy)-2-(pyridin-3-yl)-1H-inden-1-one] |
| 4.1 µM | 2.3 µM | CN(C)c1ccc(OCCOc2ccc3c(c2)C(=O)C(c2cccnc2)=C3c2ccoc2)cc1 [Compound 48, 6-(2-(4-(dimethylamino)phenoxy)ethoxy)-3-(furan-3-yl)-2-(pyridin-3-yl)-1H-inden-1-one] |
| 120 µM | 3 µM | O=C1C(c2cccnc2)=C(c2ccoc2)c2ccc(OCCc3ccccc3)cc21 [Compound 38, 3-(furan-3-yl)-6-phenethoxy-2-(pyridin-3-yl)-1H-inden-1-one] |
| 67.1 µM | 2.1 µM | O=C1C(c2cccnc2)=C(c2ccoc2)c2ccc(OCOCc3ccccc3)cc21 [Compound 40, 6-((benzyloxy)methoxy)-3-(furan-3-yl)-2-(pyridin-3-yl)-1H-inden-1-one] |
| > 500 µM | 1 µM | Cc1scnc1C1=C(c2ccc(C(F)(F)F)cc2)C(=O)c2cc(OCCOc3ccncc3)ccc21 [Compound 35, 3-(5-methylthiazol-4-yl)-6-(2-(pyridin-4-yloxy)ethoxy)-2-(4-(trifluoromethyl)phenyl)-1H-inden-1-one] |
